Measured values taken from patent US9670227B2, “Thienopyrimidine derivatives, a process for their preparation and pharmaceutical compositions containing them” (LES LABORATOIRES SERVIER, priority 2013, dated 2017).

Key:
Mcl-1 protein = Mcl-1 protein (UniProtKB primary accession number: Q07820) (Homo sapiens, UniProt Q07820); assay: Inhibition of Mcl-1 by fluorescence polarisation, Method 1; assay type: binding; conditions: fluorescence polarisation; Method 1, or Method 2; read-out: IC50 (M) Mcl-1 FP
How it was run: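 Fluorescence polarisation competition with an 11-point compound dilution series (final DMSO 5%). Mcl-1 protein at 5 nM and fluorescein-labelled ligand at 1 nM (final) in 10 mM HEPES, 150 mM NaCl, 0.05% Tween 20, pH 7.4.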

[1] = test system: H929 multiple myeloma tumour line; assay: In vitro cytotoxicity, Microculture Tetrazolium Assay; assay type: cell-based; conditions: Homo sapiens, NCI-H929, 48 h, H929 cells, 48 hours exposure, MTT; read-out: IC50 (μM) MTT H929
Procedure: The cytotoxicity studies were carried out on the H929 multiple myeloma tumour line.
The cells are distributed onto microplates and exposed to the test compounds for 48 hours.

Sequence of Mcl-1 protein (Q07820 whole entry): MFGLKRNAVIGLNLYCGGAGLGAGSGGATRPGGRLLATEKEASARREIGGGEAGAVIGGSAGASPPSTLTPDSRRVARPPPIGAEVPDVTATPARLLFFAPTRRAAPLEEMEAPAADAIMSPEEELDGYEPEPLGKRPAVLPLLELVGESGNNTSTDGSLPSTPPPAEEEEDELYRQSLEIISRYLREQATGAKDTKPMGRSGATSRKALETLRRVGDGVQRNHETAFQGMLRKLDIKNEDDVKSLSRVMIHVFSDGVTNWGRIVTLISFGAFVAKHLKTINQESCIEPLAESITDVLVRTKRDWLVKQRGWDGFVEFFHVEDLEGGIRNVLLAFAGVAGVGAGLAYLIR

SMILES | IC50 (Mcl-1 protein) | IC50 [1]
Cc1c(-c2c(-c3ccc(F)cc3)sc3ncnc(OC(Cc4ccccc4OCc4ccnn4C(C)C)C(=O)O)c23)ccc(OCCN(C)C)c1Cl [Example 752, (2R)-2-{[(5Sa)-5-{3-chloro-4-[2-(dimethylamino)ethoxy]-2-methylphenyl}-6-(4-fluorophenyl)thieno[2,3-d]pyrimidin-4-yl]oxy}-3-(2-{[1-(propan-2-yl)-1H-pyrazol-5-yl]methoxy}phenyl)propanoic acid] | 5.5e-09 M | 0.084 µM
COCCOc1ccccc1-c1nccc(COc2ccccc2CC(Oc2ncnc3sc(-c4ccc(F)cc4)c(-c4ccc(OCCN(C)C)c(Cl)c4C)c23)C(=O)O)n1 [Example 753, (2R)-2-{[(5Sa)-5-{3-chloro-4-[2-(dimethylamino)ethoxy]-2-methylphenyl}-6-(4-fluorophenyl)thieno[2,3-d]pyrimidin-4-yl]oxy}-3-[2-({2-[2-(2-methoxyethoxy)phenyl]pyrimidin-4-yl}methoxy)phenyl]propanoic acid] | 3e-09 M | 0.005 µM
CCOCCn1nccc1COc1ccccc1CC(Oc1ncnc2sc(-c3ccc(F)cc3)c(-c3ccc(OCCN(C)C)c(Cl)c3C)c12)C(=O)O [Example 754, (2R)-2-{[(5Sa)-5-{3-chloro-4-[2-(dimethylamino)ethoxy]-2-methylphenyl}-6-(4-fluorophenyl)thieno[2,3-d]pyrimidin-4-yl]oxy}-3-(2-{[1-(2-ethoxyethyl)-1H-pyrazol-5-yl]methoxy}phenyl)propanoic acid] | 4.7e-09 M | 0.089 µM
Cc1c(-c2c(-c3cccc(F)c3F)sc3ncnc(OC(Cc4ccccc4OCc4ccnn4C(C)(C)C)C(=O)O)c23)ccc(OCCN(C)C)c1Cl [Example 755, (2R)-3-{2-[(1-tert-butyl-1H-pyrazol-5-yl)methoxy]phenyl}-2-{[(5Sa)-5-{3-chloro-4-[2-(dimethylamino)ethoxy]-2-methylphenyl}-6-(2,3-difluorophenyl)thieno[2,3-d]pyrimidin-4-yl]oxy}propanoic acid] | 4.65e-09 M | 0.032 µM
COc1ccccc1-c1nccc(COc2ccccc2CC(Oc2ncnc3sc(-c4ccc(OCc5ccccc5C)cc4)c(-c4ccc(OCCN5CCN(C)CC5)c(Cl)c4C)c23)C(=O)O)n1 [Example 767, (2R)-2-[((5Sa)-5-{3-chloro-2-methyl-4-[2-(4-methylpiperazin-1-yl)ethoxy]phenyl}-6-{4-[(2-methylbenzyl)oxy]phenyl}thieno[2,3-d]pyrimidin-4-yl)oxy]-3-(2-{[2-(2-methoxyphenyl)pyrimidin-4-yl]methoxy}phenyl)propanoic acid] | 1.73e-09 M | 0.05 µM
COc1ccccc1-c1nccc(COc2ccccc2CC(Oc2ncnc3sc(-c4ccc(OCc5ccc(C)cc5)cc4)c(-c4ccc(OCCN5CCN(C)CC5)c(Cl)c4C)c23)C(=O)O)n1 [Example 768, (2R)-2-[((5Sa)-5-{3-chloro-2-methyl-4-[2-(4-methylpiperazin-1-yl)ethoxy]phenyl}-6-{4-[(4-methylbenzyl)oxy]phenyl}thieno[2,3-d]pyrimidin-4-yl)oxy]-3-(2-{[2-(2-methoxyphenyl)pyrimidin-4-yl]methoxy}phenyl)propanoic acid] | 1.04e-09 M | 0.039 µM
COc1ccccc1-c1nccc(COc2ccccc2CC(Oc2ncnc3sc(-c4ccc(OCc5ccccn5)cc4)c(-c4ccc(OCCN5CCN(C)CC5)c(Cl)c4C)c23)C(=O)O)n1 [Example 769, (2R)-2-[((5Sa)-5-{3-chloro-2-methyl-4-[2-(4-methylpiperazin-1-yl)ethoxy]phenyl}-6-[4-(pyridin-2-ylmethoxy)phenyl]thieno[2,3-d]pyrimidin-4-yl)oxy]-3-(2-{[2-(2-methoxyphenyl)pyrimidin-4-yl]methoxy}phenyl)propanoic acid] | 9.48e-10 M | 0.01 µM
COc1ccc(COc2ccc(-c3sc4ncnc(OC(Cc5ccccc5OCc5ccnc(-c6ccccc6OC)n5)C(=O)O)c4c3-c3ccc(OCCN4CCN(C)CC4)c(Cl)c3C)cc2)cc1 [Example 770, (2R)-2-[((5Sa)-5-{3-chloro-2-methyl-4-[2-(4-methylpiperazin-1-yl)ethoxy]phenyl}-6-{4-[(4-methoxybenzyl)oxy]phenyl}thieno[2,3-d]pyrimidin-4-yl)oxy]-3-(2-{[2-(2-methoxyphenyl)pyrimidin-4-yl]methoxy}phenyl)propanoic acid] | 1.01e-09 M | 0.01 µM
COc1ccccc1-c1nccc(COc2ccccc2CC(Oc2ncnc3sc(-c4ccc(OCc5ccnn5C)cc4)c(-c4ccc(OCCN5CCN(C)CC5)c(Cl)c4C)c23)C(=O)O)n1 [Example 771, (2R)-2-[((5Sa)-5-{3-chloro-2-methyl-4-[2-(4-methylpiperazin-1-yl)ethoxy]phenyl}-6-{4-[(1-methyl-1H-pyrazol-5-yl)methoxy]phenyl}thieno[2,3-d]pyrimidin-4-yl)oxy]-3-(2-{[2-(2-methoxyphenyl)pyrimidin-4-yl]methoxy}phenyl)propanoic acid] | 1.04e-09 M | 0.019 µM
COc1ccccc1-c1nccc(COc2ccccc2CC(Oc2ncnc3sc(-c4ccc(OCc5cccnc5)cc4)c(-c4ccc(OCCN5CCN(C)CC5)c(Cl)c4C)c23)C(=O)O)n1 [Example 772, (2R)-2-[((5Sa)-5-{3-chloro-2-methyl-4-[2-(4-methylpiperazin-1-yl)ethoxy]phenyl}-6-[4-(pyridin-3-ylmethoxy)phenyl]thieno[2,3-d]pyrimidin-4-yl)oxy]-3-(2-{[2-(2-methoxyphenyl)pyrimidin-4-yl]methoxy}phenyl)propanoic acid] | 9.48e-10 M | 0.01 µM
COc1ccccc1-c1nccc(COc2ccccc2CC(Oc2ncnc3sc(-c4ccc(OCc5cccc(C)c5)cc4)c(-c4ccc(OCCN5CCN(C)CC5)c(Cl)c4C)c23)C(=O)O)n1 [Example 773, (2R)-2-[((5Sa)-5-{3-chloro-2-methyl-4-[2-(4-methylpiperazin-1-yl)ethoxy]phenyl}-6-{4-[(3-methylbenzyl)oxy]phenyl}thieno[2,3-d]pyrimidin-4-yl)oxy]-3-(2-{[2-(2-methoxyphenyl)pyrimidin-4-yl]methoxy}phenyl)propanoic acid] | 1.25e-09 M | 0.017 µM
COc1ccccc1-c1nccc(COc2ccccc2CC(Oc2ncnc3sc(-c4ccc(OCc5ccc(Cl)cc5)cc4)c(-c4ccc(OCCN5CCN(C)CC5)c(Cl)c4C)c23)C(=O)O)n1 [Example 775, (2R)-2-[(6-{4-[(4-chlorobenzyl)oxy]phenyl}-(5Sa)-5-{3-chloro-2-methyl-4-[2-(4-methylpiperazin-1-yl)ethoxy]phenyl}thieno[2,3-d]pyrimidin-4-yl)oxy]-3-(2-{[2-(2-methoxyphenyl)pyrimidin-4-yl]methoxy}phenyl)propanoic acid] | 3.55e-09 M | 0.039 µM
COc1ccccc1-c1nccc(COc2ccccc2CC(Oc2ncnc3sc(-c4ccc(OCc5ccn(C)n5)cc4)c(-c4ccc(OCCN5CCN(C)CC5)c(Cl)c4C)c23)C(=O)O)n1 [Example 776, (2R)-2-[((5Sa)-5-{3-chloro-2-methyl-4-[2-(4-methylpiperazin-1-yl)ethoxy]phenyl}-6-{4-[(1-methyl-1H-pyrazol-3-yl)methoxy]phenyl}thieno[2,3-d]pyrimidin-4-yl)oxy]-3-(2-{[2-(2-methoxyphenyl)pyrimidin-4-yl]methoxy}phenyl)propanoic acid] | 9.48e-10 M | 0.007 µM
COc1ccccc1-c1nccc(COc2ccccc2CC(Oc2ncnc3sc(-c4ccc(OCc5cccs5)cc4)c(-c4ccc(OCCN5CCN(C)CC5)c(Cl)c4C)c23)C(=O)O)n1 [Example 777, (2R)-2-[((5Sa)-5-{3-chloro-2-methyl-4-[2-(4-methylpiperazin-1-yl)ethoxy]phenyl}-6-[4-(thiophen-2-ylmethoxy)phenyl]thieno[2,3-d]pyrimidin-4-yl)oxy]-3-(2-{[2-(2-methoxyphenyl)pyrimidin-4-yl]methoxy}phenyl)propanoic acid] | 1.12e-09 M | 0.008 µM
COc1ccccc1-c1nccc(COc2ccccc2CC(Oc2ncnc3sc(-c4ccc(OCc5ccsc5)cc4)c(-c4ccc(OCCN5CCN(C)CC5)c(Cl)c4C)c23)C(=O)O)n1 [Example 778, (2R)-2-[((5Sa)-5-{3-chloro-2-methyl-4-[2-(4-methylpiperazin-1-yl)ethoxy]phenyl}-6-[4-(thiophen-3-ylmethoxy)phenyl]thieno[2,3-d]pyrimidin-4-yl)oxy]-3-(2-{[2-(2-methoxyphenyl)pyrimidin-4-yl]methoxy}phenyl)propanoic acid] | 1.09e-09 M | 0.013 µM
Cc1c(-c2c(-c3ccc(OCc4ccn(C)n4)cc3)sc3ncnc(OC(Cc4ccccc4OCc4ccnn4CC(F)(F)F)C(=O)O)c23)ccc(OCCN2CCN(C)CC2)c1Cl [Example 779, (2R)-2-[((5Sa)-5-{3-chloro-2-methyl-4-[2-(4-methylpiperazin-1-yl)ethoxy]phenyl}-6-{4-[(1-methyl-1H-pyrazol-3-yl)methoxy]phenyl}thieno[2,3-d]pyrimidin-4-yl)oxy]-3-(2-{[1-(2,2,2-trifluoroethyl)-1H-pyrazol-5-yl]methoxy}phenyl)propanoic acid] | 1.86e-09 M | 0.056 µM
COc1ccccc1-c1nccc(COc2ccccc2CC(Oc2ncnc3sc(C#CCOc4ccccc4)c(-c4ccc(OCCN5CCN(C)CC5)c(Cl)c4C)c23)C(=O)O)n1 [Example 782, (2R)-2-{[(5Sa)-5-{3-chloro-2-methyl-4-[2-(4-methylpiperazin-1-yl)ethoxy]phenyl}-6-(3-phenoxyprop-1-yn-1-yl)thieno[2,3-d]pyrimidin-4-yl]oxy}-3-(2-{[2-(2-methoxyphenyl)pyrimidin-4-yl]methoxy}phenyl)propanoic acid] | 1.68e-09 M | 0.057 µM
